Test results reported in PMC4491176, “Caenorhabditis elegans is a useful model for anthelmintic discovery” (Nature Communications, 2015).

Tests used:
[1] = test system: wact-11-family resistant C. elegans mutants (RP2674, RP2698 and others); assay: 96-well liquid-based dose-response (in vivo LD100), wact-11-family resistant mutants; settings: liquid dose-response of resistant mutants versus N2
Protocol: (§1) The 96-well liquid-based chemical screening assay was adapted from an established RNAi screening protocol. Briefly, saturated HB101 Escherichia coli culture was concentrated 2-fold using NGM (nematode growth media) containing 3 mg ml^−1 NaCl, 2.5 mg ml^−1 peptone, 5 μg ml^−1 cholesterol, 1 mM CaCl2, 1 mM MgSO4 and 25 mM KH2PO4. A total of 40 μl of NGM+HB101 was dispensed into each well of a 96-well plate, and chemicals were pinned into the wells using a pinning tool with a 300 nl slot volume (V&P Scientific). Approximately 20 synchronized first larval-stage (L1) worms, in 10 μl of M9 buffer (see ref. [24] for the recipe), were then added to each well. The synchronized L1s were obtained from an embryo preparation (see ref. [24] for the protocol) performed the previous day. The final concentration of dimethyl sulfoxide (DMSO) in the wells was 0.6% v/v. A dissection microscope was used to visualize the wells either 5 or 6 days post worm deposition and any obvious chemical-induced phenotypes were noted.
The 96-well liquid-based assay was also used for all follow-up dose-response experiments in this work. These experiments were carried out in quadruplicate, and the total number of worms in each well was counted 6 days after worm deposition.

[2] = test system: C. elegans; assay: C. elegans liquid-based chemical screening of the wactive library; format: in vivo, Caenorhabditis elegans; design: key: 1 = yes
Protocol: as §1
For our preliminary screens, 50,596 out of 67,012 compounds were assayed in liquid at a 60 μM concentration, and the other 16,416 molecules were screened on solid media at 25 μM (see ref. [24] for a description of our solid-based screening method). […]

[3] = test system: three nematode species, zebrafish and HEK cells; assay: Grouping by phylogenetic bioactivity profile (multi-organism screening pipeline); design: key: Group 1 molecules are lethal to only one or two of the three nematode species tested, but are non-lethal to zebrafish and HEK cells.; Group 2 molecules are lethal to all three nematode species, but are non-lethal to zebrafish and human cells.; Group 3 molecule are lethal to fish or HEK cells, regardless of their nematode bioactivity profile; settings: nematode selectivity and cross-species lethality group
Excerpt: To further characterize our 275 C. elegans-lethal molecules, we organized them into three separate groups based on their phylogenetic bioactivity profiles (Fig. 2a). Group 1 contains 102 molecules that are lethal to only one or two of the three nematode species tested, but are non-lethal to zebrafish and HEK cells. Group 2 contains 67 compounds that are lethal to all three nematode species, but are non-lethal to zebrafish and human cells. Group 3 contains the remaining 106 compounds that are lethal to fish or HEK cells, and have varied bioactivity in different nematode species. In particular, the 67 molecules in group 2 represent potentially ideal anthelmintic leads; they have activity across multiple nematode species, and appear not to affect vertebrates.

[4] = test system: C. onchophora; assay: C. oncophora egg hatch chemical screen; format: in vivo, Cooperia onchophora; design: key: 1 = yes; settings: 90-100% lethal at 7.5 or 60 μM
Protocol: (§2) Fresh cattle and sheep faeces containing eggs of an ivermectin-resistant strain of C. onchophora[39] and the MHco3(ISE) strain of H. contortus, respectively, were kindly supplied by Dr Doug Colwell and Dawn Gray (Lethbridge Research Station, Agriculture and Agri-Food Canada). Experimental infections used to generate this material were carried out using established methods, and were approved by the Lethbridge AAFC Animal Care committee and conducted under animal use license ACC1407. Cattle faeces containing C. onchophora eggs were stored anaerobically at 4 °C for a maximum of 3 weeks, whereas sheep faeces containing H. contortus eggs were stored at 20 °C for no more than 48 h before harvesting eggs for use. Eggs were isolated from faeces using a standard saturated salt flotation method[42] immediately before each egg hatch assay. Approximately 100 eggs suspended in 100 μl of water were added to each well of a 96-well plate, and the wactive library chemicals were screened at two different concentrations (7.5 and 60 μM, 0.6% DMSO v/v). Baseline egg hatch rates were determined in DMSO control wells ∼48 h after the initial set-up of the assay by the addition of iodine tincture to stop development. […] A dissection microscope was used for visualization purposes.

[5] = test system: H. contortus; assay: H. contortus egg hatch chemical screen; format: in vivo, Haemonchus contortus; settings: 90-100% lethal at 7.5 or 60 μM
Protocol: as §2

[6] = test system: HEK293T cells; assay: HEK293 cell proliferation (BrdU) chemical screening; format: cell-based; settings: 60 μM, BrdU normalized signal <0.16
Protocol: HEK293T cells (Attisano Lab, University of Toronto) were maintained in Dulbecco's Modified Eagle's Medium (Gibco) supplemented with 10% FBS (DMEM-10% FBS). Cells at a concentration of 50 cells μl^−1 were seeded into 96-well plates at a final volume of 100 μl (∼5,000 cells per well). Chemicals from the wactive library were added to the wells for a final concentration of 60 μM (0.6% DMSO v/v). The wactive library plates were screened at least in triplicate. Cell proliferation was determined using a bromodeoxyuridine (BrdU) assay kit (Exalpha Biologicals Inc.). The BrdU was added 2 days after chemical addition. Fixation and denaturation was performed ∼16–18 h later. Anti-BrdU antibody was added, and incorporated BrdU was detected using a horseradish peroxidase-conjugated goat anti-mouse antibody. The BrdU incorporation signal was measured at 450/550 nm for the amount of conversion of tetra-methylbenzidine that is proportional to the amount of BrdU incorporated. For each replicate of each plate, the average signal for the DMSO control wells was calculated. For each well in the plate (including the DMSO control wells), the signal was normalized by dividing by the average DMSO signal. The mean and standard deviation for the population of 960 normalized sample signals of the 10-plate wactive library were calculated and found to be […] and 0.44, respectively.

[7] = test system: D. rerio; assay: Zebrafish embryo chemical screening; format: in vivo, Danio rerio (zebrafish); settings: embryos, 10 μM, death or toxicity at 24 and 48 h post fertilization
Protocol: Wild-type (AB) zebrafish embryos were collected in E3 solution (5 mM NaCl, 0.17 mM KCl, 0.33 mM CaCl2, 0.33 mM MgSO4) immediately after fertilization and arrayed at three embryos per well in 96-well plates, 200 μl per well. Wild-type (AB) zebrafish were originally obtained from Zebrafish International Resource Center (University of Oregon). Chemicals were added to each well at 6 h post fertilization at a final concentration of 10 μM (0.5% v/v DMSO), with each plate containing nine wells of DMSO controls. Embryos were examined for mortality and observable developmental phenotypes at 24 and 48 h post fertilization using an Olympus SZX10 Brightfield microscope. Phenotypes examined were death, developmental delay, reduced pigmentation, cranial oedema or cardiac defects (slow/absent heart rate, abnormal heart size). Each compound was screened in duplicate, with only phenotypes appearing in both replicates associated with a given compound. Any compound producing multiple, distinct phenotypes across replicates (for example, cardiac defects in one replicate, mortality in another) was labelled ‘toxic'. A molecule was considered ‘lethal' to zebrafish if it induced ‘death' or ‘toxicity'.

Brc1ccc(-c2noc(-c3cccs3)n2)cc1 [wact-2]
Resistance of wact-11-family resistant mutants to compound-induced lethality (in words) [1]: not
C. elegans Lethal (1 = yes) ([2]; 100% lethality at 60 μM or less): 1
Wactive (1 = yes) ([2]; induces obvious phenotype in C. elegans at 60 μM or less): 1
Group # (Bioactivity Group #) [3]: 1
C. onchophora Lethal (1 = yes) [4]: 1
H. contortus Lethal (1 = yes) [5]: 0
HEK Cell Growth Decrease (1 = yes) [6]: 0
D. rerio Lethal (1 = yes) [7]: 0
